Reference: the NIST ThermoML archive (doi:10.1021/acs.jced.5b00845)

Assays:
[1] = cn = amount concentration of the nth substance listed, in mol/dm3; conditions: 100 kPa, Liquid, Capillary tube (Ostwald / Ubbelohde) method
[2] = mn = molality of the nth substance listed, in mol/kg; conditions: 100 kPa, Liquid, Capillary tube (Ostwald / Ubbelohde) method
[3] = 100 kPa, Liquid, Capillary tube (Ostwald / Ubbelohde) method

O=C(CO)[C@@H](O)[C@H](O)[C@H](O)CO [D-fructose] + O
viscosity [mPa·s], [1]
Conditions | c1 = 0.0628 | c1 = 0.06594 | c1 = 0.08345 | c1 = 0.1124 | c1 = 0.1285 | c1 = 0.1523
288.15 K | 1.174 | 1.175 | 1.185 | 1.201 | 1.209 | 1.222
298.15 K | 0.916 | 0.917 | 0.924 | 0.935 | 0.941 | 0.951
308.15 K | 0.739 | 0.74 | 0.745 | 0.754 | 0.759 | 0.766
318.15 K | 0.61 | 0.611 | 0.614 | 0.621 | 0.624 | 0.629

OC[C@H]1O[C@@](CO)(O[C@H]2O[C@H](CO)[C@@H](O)[C@H](O)[C@H]2O)[C@@H](O)[C@@H]1O [D-sucrose] + O
viscosity [mPa·s], [2]
Conditions | m1 = 0.05768 | m1 = 0.06994 | m1 = 0.07682 | m1 = 0.08384 | m1 = 0.09221 | m1 = 0.1103 | m1 = 0.1237 | m1 = 0.1437
288.15 K | 1.205 | 1.219 | 1.227 | 1.235 | 1.244 | 1.265 | 1.28 | 1.302
298.15 K | 0.941 | 0.951 | 0.957 | 0.963 | 0.97 | 0.986 | 0.997 | 1.014
308.15 K | 0.758 | 0.766 | 0.771 | 0.776 | 0.781 | 0.793 | 0.802 | 0.815
318.15 K | 0.627 | 0.634 | 0.637 | 0.641 | 0.645 | 0.655 | 0.662 | 0.672

O=C[C@H](O)[C@@H](O)[C@H](O)CO [D-xylose] + O
viscosity [mPa·s], [2]
Conditions | m1 = 0.05317 | m1 = 0.06636 | m1 = 0.07781 | m1 = 0.08585 | m1 = 0.1009 | m1 = 0.1145
288.15 K | 1.159 | 1.165 | 1.169 | 1.173 | 1.179 | 1.185
298.15 K | 0.906 | 0.91 | 0.914 | 0.917 | 0.921 | 0.925
308.15 K | 0.732 | 0.735 | 0.737 | 0.739 | 0.743 | 0.746
318.15 K | 0.606 | 0.608 | 0.61 | 0.612 | 0.614 | 0.618

N.O=P(O)(O)O [ammonium dihydrogen phosphate] + O
viscosity [mPa·s], [2]
Conditions | 288.15 K | 298.15 K | 308.15 K | 318.15 K
m1 = 0.5 | 1.29 | 1.014 | 0.822 | 0.659
m1 = 1 | 1.472 | 1.172 | 0.942 | 0.741
m1 = 1.5 | 1.672 | 1.332 | 1.049 | 0.822
m1 = 2 | 1.831 | 1.463 | 1.161 | 0.908

CO[C@H]1O[C@H](CO)[C@@H](O)[C@H](O)[C@H]1O [methyl-α-D-glucopyranoside] + O
viscosity [mPa·s], [2]
Conditions | m1 = 0.06502 | m1 = 0.07733 | m1 = 0.09597 | m1 = 0.1109 | m1 = 0.1219 | m1 = 0.122 | m1 = 0.1465
288.15 K | 1.174 | 1.181 | 1.191 | 1.2 | 1.207 | 1.206 | 1.219
298.15 K | 0.917 | 0.922 | 0.929 | 0.935 | 0.941 | 0.94 | 0.95
308.15 K | 0.74 | 0.744 | 0.749 | 0.754 | 0.758 | 0.757 | 0.765
318.15 K | 0.612 | 0.615 | 0.619 | 0.623 | 0.625 | 0.626 | 0.631

O=P([O-])(O)O.[K+] [monopotassium phosphate] + O
viscosity [mPa·s], [2]
Conditions | 288.15 K | 298.15 K | 308.15 K | 318.15 K
m1 = 0.25 | 1.236 | 0.972 | 0.777 | 0.633
m1 = 0.5 | 1.301 | 1.025 | 0.815 | 0.666
m1 = 1 | 1.539 | 1.159 | 0.939 | 0.763
m1 = 1.25 | 1.636 | 1.294 | 1.027 | 0.84

O=P([O-])(O)O.[Na+] [sodium dihydrogen phosphate] + O
viscosity [mPa·s], [2]
Conditions | 288.15 K | 298.15 K | 308.15 K | 318.15 K
m1 = 0.5 | 1.427 | 1.093 | 0.88 | 0.723
m1 = 1 | 1.731 | 1.332 | 1.074 | 0.875
m1 = 1.5 | 2.139 | 1.63 | 1.267 | 1.051
m1 = 2 | 2.65 | 1.987 | 1.457 | 1.257

O=P([O-])([O-])[O-].[K+].[K+].[K+] [tripotassium phosphate] + O
viscosity [mPa·s], [2]
Conditions | 288.15 K | 298.15 K | 308.15 K | 318.15 K
m1 = 0.5 | 1.414 | 1.133 | 0.915 | 0.708
m1 = 1 | 1.7 | 1.349 | 1.09 | 0.838
m1 = 1.5 | 2.004 | 1.598 | 1.281 | 1.003
m1 = 2 | 2.299 | 1.806 | 1.441 | 1.116

O [water]
[3]
Conditions | viscosity [mPa·s]
288.15 K | 1.138
298.15 K | 0.89
308.15 K | 0.719
318.15 K | 0.596

CO[C@H]1O[C@H](CO)[C@@H](O)[C@H](O)[C@@H]1O [α-methyl mannopyranoside] + O
viscosity [mPa·s], [2]
Conditions | m1 = 0.05551 | m1 = 0.0769 | m1 = 0.09681 | m1 = 0.1166 | m1 = 0.1344 | m1 = 0.1466 | m1 = 0.1632
288.15 K | 1.172 | 1.185 | 1.197 | 1.209 | 1.22 | 1.227 | 1.237
298.15 K | 0.916 | 0.925 | 0.934 | 0.943 | 0.951 | 0.956 | 0.964
308.15 K | 0.739 | 0.746 | 0.753 | 0.76 | 0.766 | 0.77 | 0.775
318.15 K | 0.611 | 0.617 | 0.623 | 0.628 | 0.633 | 0.636 | 0.64
